# Reference: patent US11214803B2, “Modulators of YAP1 expression” (Ionis Pharmaceuticals, Inc., priority 2019, dated 2022)
# Strand notation (5' to 3'): a small letter for the sugar, then the base; units joined by * are phosphorothioate-linked, units joined directly phosphodiester-linked; [ ] holds rarer units or linkages, { } end groups; capitals alone tell only the bases. e = 2'-O-(2-methoxyethyl) (MOE); k = constrained ethyl (cEt); [5mC] = 5-methylcytosine; d = 2'-deoxy (DNA); m = 2'-O-methyl
# System: Yap1 mRNA
# Assay: Dose-dependent inhibition of human Yap1 in SNU-449 cells (Example 9, RTS36584)
# Format: cell-based
# Details: free uptake; for % UTC (Yap1 mRNA): approximately 48 hours; for IC50: linear regression on a log/linear plot
# Summary of the method: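 Read-out was Yap1 mRNA (primer-probe RTS36584) normalised to total RNA by RIBOGREEN, given as % of untreated cells, with IC50 fitted by linear regression of log/linear data. Oligonucleotides were dosed by free uptake to SNU-449 cells, 10,000/well, for ~48 h.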
Substance,% UTC (Yap1 mRNA) (31.3 nM) [% UTC],% UTC (Yap1 mRNA) (125.0 nM) [% UTC],% UTC (Yap1 mRNA) (500.0 nM) [% UTC],% UTC (Yap1 mRNA) (2000.00 nM) [% UTC],IC50 [nM]
1200862 (kT*kT*kT*dA*dA*mA*dG*dT*dG*dT*dA*dT*dG*kT*k[5mC]*kA; antisense) [compound 1200862],88,64,35,13,200
1198719 (kG*eG*kA*dA*dA*dT*dT*dG*dT*d[5mC]*dT*d[5mC]*eA*eT*kG*k[5mC]; antisense) [compound 1198719],67,30,9,3,100
1200820 (kG*kG*kA*dA*dG*mA*dT*d[5mC]*dT*dG*dA*dA*dA*k[5mC]*kT*k[5mC]; antisense) [compound 1200820],104,69,36,17,300
1197176 (kT*kG*kT*d[5mC]*dT*d[5mC]*dA*dT*dG*d[5mC]*d[5mC]*dT*dT*kA*kT*kA; antisense) [compound 1197176],66,37,19,6,100
1095481 (kT*kG*dA*dG*dG*dT*dA*dT*dA*dA*d[5mC]*dT*kG*eG*kG*e[5mC]) [compound 1095481],73,47,16,8,100
1198724 (kA*eG*kA*dG*dT*dA*dT*dG*dT*dG*dG*d[5mC]*eA*eA*kT*kA; antisense) [compound 1198724],56,25,8,3,< 30
1200794 (kA*kG*kA*dG*dT*mA*dT*dG*dT*dG*dG*d[5mC]*dA*kA*kT*kA; antisense) [compound 1200794],85,59,31,13,200
1198356 (kT*kA*kA*dA*dG*dT*dG*dT*dA*dT*dG*dT*k[5mC]*eA*kG*eA; antisense) [compound 1198356],85,30,7,1,100
1198494 (kG*kT*dG*d[5mC]*dT*dT*dT*dG*dG*dA*dA*eG*kA*eT*k[5mC]*eT; antisense) [compound 1198494],59,37,24,13,100
1198818 (kT*kA*dT*dT*dA*dG*dA*dG*dT*dA*dT*kG*eT*kG*eG*k[5mC]) [compound 1198818],68,33,15,5,100
1198570 (kG*k[5mC]*kA*d[5mC]*dT*dT*dT*dT*dA*d[5mC]*dA*dT*kT*kA*kG*eG) [compound 1198570],58,33,16,9,40
1198787 (kA*eG*kT*dG*dT*dA*dT*dG*dT*d[5mC]*dA*dG*eA*eA*kG*kA; antisense) [compound 1198787],68,21,6,1,50
1197193 (AGGATGCATGGTTTTT; chemistry not fully specified) [compound 1197193],85,52,24,11,200
1198211 (kA*kT*dT*dA*dG*dA*dG*dT*dA*dT*dG*eT*eG*eG*k[5mC]*kA) [compound 1198211],72,37,23,12,100
1198935 (kG*kA*dT*dT*dT*dA*dG*dG*dA*dT*dG*k[5mC]*dA*kT*dG*kG; antisense) [compound 1198935],50,46,23,11,40
1198526 (kA*kA*dG*dT*dG*dT*dA*dT*dG*dT*d[5mC]*eA*kG*eA*kA*eG; antisense) [compound 1198526],61,30,8,2,40

Substance,% UTC (Yap1 mRNA) (31.3 nM) [% UTC],% UTC (Yap1 mRNA) (125.0 nM) [% UTC],% UTC (Yap1 mRNA) (500.0 nM) [% UTC],% UTC (Yap1 mRNA) (2000.00 nM) [% UTC],IC50 [nM]
"1198398 (G_{ks}^{m}C_{ds}A_{ds}C_{ds}T_{ds}T_{ds}T_{ds}T_{ds}A_{ds}^{m}C_{ds}A_{ds}T_{ks}T_{es}A_{ks}G_{es}G_{k}; cEt, 2'-MOE, 5-methylcytosine, phosphorothioate modifications, as printed in the source, key not given here) [compound 1198398]",73,55,33,18,200
1198507 (kT*kT*dA*dT*dA*dT*dG*dG*dT*dT*dT*eT*kG*eT*kG*eT; antisense) [compound 1198507],83,57,29,13,200
1198289 (kG*kG*kA*dA*dA*dT*dT*dG*dT*d[5mC]*dT*d[5mC]*kA*eT*kG*e[5mC]; antisense) [compound 1198289],72,41,18,9,100
1198438 (kT*dG*dT*dA*dT*dG*dT*d[5mC]*dA*dG*dA*kA*eG*kA*eG*kT) [compound 1198438],62,28,7,2,40
1198905 (kA*kT*dA*dT*dT*dA*dG*dA*dG*dT*dA*kT*dG*kT*dG*kG; antisense) [compound 1198905],75,43,21,6,100
1198805 (kA*kT*dT*dG*dT*d[5mC]*dT*d[5mC]*dA*dT*dG*k[5mC]*e[5mC]*kT*eT*kA; antisense) [compound 1198805],61,42,20,7,100
1198917 (k[5mC]*kA*d[5mC]*dT*dT*dT*dT*dA*d[5mC]*dA*dT*kT*dA*kG*dG*kA; antisense) [compound 1198917],81,37,12,6,100
1198642 (kT*kA*dT*dT*dA*dG*dA*dG*dT*dA*dT*dG*kT*eG*kG*e[5mC]; antisense) [compound 1198642],79,48,15,4,100
1198525 (kA*kG*dT*dG*dT*dA*dT*dG*dT*d[5mC]*dA*eG*kA*eA*kG*eA) [compound 1198525],62,26,8,1,40
1198288 (kG*kA*kA*dA*dT*dT*dG*dT*d[5mC]*dT*d[5mC]*dA*kT*eG*k[5mC]*e[5mC]; antisense) [compound 1198288],77,43,17,7,100
1197214 (kA*kG*kT*dG*dT*dA*dT*dG*dT*d[5mC]*dA*dG*dA*kA*kG*kA; antisense) [compound 1197214],88,31,7,1,100
1200860 (kT*kA*kA*dA*dG*mU*dG*dT*dA*dT*dG*dT*d[5mC]*kA*kG*kA; antisense) [compound 1200860],59,35,15,5,50
1198596 (k[5mC]*kT*k[5mC]*dT*dT*dA*dT*dA*dT*dG*dG*dT*kT*kT*kT*eG; antisense) [compound 1198596],73,40,14,4,100
1198895 (kG*kG*dA*dA*dA*dT*dT*dG*dT*d[5mC]*dT*k[5mC]*dA*kT*dG*k[5mC]; antisense) [compound 1198895],62,37,16,9,100
1198500 (kA*kT*dT*dT*dA*dG*dG*dA*dT*dG*d[5mC]*eA*kT*eG*kG*eT; antisense) [compound 1198500],72,51,34,15,200
